Blank lines part the entries; values can stand above or below the compound they belong to. Calls of active or inactive are those of the source.
Assays:
Estrogen receptor beta [1] = molecular target: T1, Estrogen receptor beta (Homo sapiens, UniProt Q92731); experiment: ERβ–SRC-3 coactivator interaction inhibitors, confirmation, orthogonal assay, biochemical, ELISA, streptavidin-HRP readout (AID 1060)
[2] = molecular target: T2, Oxysterols receptor LXR-beta (Homo sapiens, UniProt P55055); type: functional, cell-based;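 further: agonist activity at LXR measured by a cell-based luminescence readout across a dose range, run as a counterscreen for daf-12 agonists; potency for activation of Gal4-LXR reporter so compounds are agonists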
T2 sequence (P55055 whole entry): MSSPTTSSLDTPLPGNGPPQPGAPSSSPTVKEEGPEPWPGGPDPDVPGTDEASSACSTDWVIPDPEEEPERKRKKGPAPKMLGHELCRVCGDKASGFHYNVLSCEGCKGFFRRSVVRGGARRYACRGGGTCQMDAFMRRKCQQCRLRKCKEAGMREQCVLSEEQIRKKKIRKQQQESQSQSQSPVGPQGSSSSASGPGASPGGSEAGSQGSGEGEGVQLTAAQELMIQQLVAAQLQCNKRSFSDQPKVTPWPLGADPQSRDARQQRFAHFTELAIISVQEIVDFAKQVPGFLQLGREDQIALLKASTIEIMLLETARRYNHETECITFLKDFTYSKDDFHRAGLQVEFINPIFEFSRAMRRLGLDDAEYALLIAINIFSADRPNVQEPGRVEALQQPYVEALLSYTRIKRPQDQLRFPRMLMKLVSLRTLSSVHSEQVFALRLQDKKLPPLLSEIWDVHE

[3] = C. albicans growth with fluconazole, confirmation, fluorescence, retest (AID 2467); type: functional, cell-based
[4] = NIH-3T3 fibroblast cytotoxicity, dose response, cytotoxicity control, cell-based, fluorescence, Alamar Blue, secondary assay (AID 2327); type: functional;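 further: NIH-3T3 mouse fibroblasts cultured with fluconazole at 8 µg/mL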
[5] = molecular target: T3, Mannose-6-phosphate isomerase (Homo sapiens, UniProt P34949); experiment: human PMI inhibitors, high substrate, primary screen, biochemical, fluorescence intensity, high mannose 6-phosphate (AID 1220)
T3 sequence (P34949 whole entry): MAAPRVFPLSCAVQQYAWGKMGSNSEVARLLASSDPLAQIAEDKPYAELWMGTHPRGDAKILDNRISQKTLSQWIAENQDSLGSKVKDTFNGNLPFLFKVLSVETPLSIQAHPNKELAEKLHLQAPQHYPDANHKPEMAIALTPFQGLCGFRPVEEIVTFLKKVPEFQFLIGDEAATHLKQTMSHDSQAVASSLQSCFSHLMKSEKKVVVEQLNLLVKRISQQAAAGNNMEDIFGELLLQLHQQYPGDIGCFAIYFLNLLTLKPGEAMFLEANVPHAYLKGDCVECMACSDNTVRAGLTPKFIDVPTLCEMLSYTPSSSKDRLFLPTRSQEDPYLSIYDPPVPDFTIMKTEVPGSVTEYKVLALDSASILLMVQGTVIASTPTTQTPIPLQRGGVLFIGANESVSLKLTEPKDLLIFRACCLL

[6] = molecular target: T4, Carboxy-terminal domain RNA polymerase II polypeptide A small phosphatase 1 (Homo sapiens, UniProt Q9GZU7); experiment: inhibitors of CTDSP1, concentration-response testing, biochemical assay, absorbance-based, actives from ultra-high-throughput screening (AID 540297); type: functional
T4 sequence (Q9GZU7 whole entry): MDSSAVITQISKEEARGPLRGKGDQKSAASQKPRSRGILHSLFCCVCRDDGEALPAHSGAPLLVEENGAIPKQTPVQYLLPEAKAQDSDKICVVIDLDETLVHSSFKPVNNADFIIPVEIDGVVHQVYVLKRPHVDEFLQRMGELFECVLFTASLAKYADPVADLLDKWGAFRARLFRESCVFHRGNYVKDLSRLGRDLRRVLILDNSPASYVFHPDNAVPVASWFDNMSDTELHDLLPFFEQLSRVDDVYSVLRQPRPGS

BJ [7] = experiment: cytotoxicity toward BJ-TERT-LT-ST fibroblasts, dose response, cell-based, RAS-independent, luminescence (AID 1935); type: functional; conditions: Homo sapiens;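 further: BJ fibroblasts immortalized with TERT plus LT and ST oncogenes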
BJ [8] = experiment: cells; type: functional, cell-based; conditions: Homo sapiens
BJ [9] = experiment: cytotoxicity toward BJ-TERT fibroblasts, dose response, cell-based, RAS-independent, luminescence (AID 1933); type: functional; conditions: Homo sapiens
[10] = cytotoxicity toward DRD oncogenic fibroblasts, dose response, cell-based, non-viral oncogenic, luminescence (AID 1934); type: functional; conditions: Homo sapiens
Estrogen receptor beta [11] = molecular target: T1, Estrogen receptor beta
Prothrombin = Prothrombin (Homo sapiens, UniProt P00734); experiment: Thrombin 1536 HTS Dose Response Confirmation. [Related pubchem assays: 1046 (Thrombin 1536 HTS; hits were confirmed in this assay)]; type: functional
[12] = inhibitors of intracellular T. cruzi replication, confirmation, NIH3T3 host cells, beta-gal luminescence (AID 2044); type: functional, cell-based;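 further: intracellular parasites grown in NIH/3T3 mouse fibroblasts as host cells; luminescent beta-galactosidase reporter signal from transgenic T. cruzi replicating inside host cells; inhibitors lower the luminescence signal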
[13] = Luminescence-based cell-based high throughput dose response assay to identify activators of the DAF-12 from the parasite S. stercoralis (ssDAF-12).; type: functional
[14] = cytotoxicity toward NIH3T3 fibroblasts, dose response, counter-screen, cell-based, ATP luminescence, mouse fibroblasts (AID 2010); type: functional;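 further: cells exposed to compound for about 90 hours before reading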
[15] = molecular target: T2, Oxysterols receptor LXR-beta; experiment: LXR agonists, Gal4 luciferase reporter, dose response, counter-screen for ssDAF-12 agonist project, cell-based, luminescence, HEK293, S. stercoralis campaign (AID 720737); type: functional; conditions: read-out: IC50 (the source's name)

T1 sequence (Q92731 whole entry, the tested form may be a part): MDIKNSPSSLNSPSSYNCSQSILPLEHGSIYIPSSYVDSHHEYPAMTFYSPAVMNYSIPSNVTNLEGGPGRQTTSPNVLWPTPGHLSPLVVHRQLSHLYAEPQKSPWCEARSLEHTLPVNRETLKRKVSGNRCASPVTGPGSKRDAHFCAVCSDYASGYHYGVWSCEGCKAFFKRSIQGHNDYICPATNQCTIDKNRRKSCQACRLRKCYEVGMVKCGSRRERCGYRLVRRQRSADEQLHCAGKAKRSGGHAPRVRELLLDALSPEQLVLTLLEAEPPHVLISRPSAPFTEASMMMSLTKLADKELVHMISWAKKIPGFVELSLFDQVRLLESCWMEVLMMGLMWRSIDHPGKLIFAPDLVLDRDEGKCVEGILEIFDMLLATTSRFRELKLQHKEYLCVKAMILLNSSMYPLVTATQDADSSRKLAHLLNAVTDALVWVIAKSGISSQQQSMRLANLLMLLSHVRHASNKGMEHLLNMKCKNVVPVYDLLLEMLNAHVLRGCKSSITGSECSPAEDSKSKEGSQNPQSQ

Compound: Clc1ccc(CSc2nc3cc[nH]cc-3n2)cc1
EC50 [2]: > 67.5 µM (inactive)

Compound: CN(C)c1ccc(C(C#N)c2ccccc2)nn1 (stereo not given)
EC50 [2]: > 67.5 µM (inactive)

Compound: O=C1CN2C(=Nc3ccc(Cl)cc3C2c2ccccc2)CN1 (stereo not given)
EC50 [3]: 3.04 µM (active)
IC50 (cells): 24.2 µM (active)
EC50 [4]: > 160 µM (inactive)

Compound: COc1ccc(C(=O)c2cc([N+](=O)[O-])ccc2N2CCN(C)CC2)cc1
EC50 (BJ [7]): 4.39 µM (active)
EC50 (BJ [8]): 32.9 µM (active)
EC50 (BJ [9]): 9.22 µM (inconclusive)
EC50 [10]: 5.04 µM (active)

Compound: Nc1nc(-c2ccc(Cl)cc2)nn1C(=O)c1cccnc1
IC50 (Prothrombin): 1.37 µM (active)

Compound: Cc1ccc(C(=O)c2ccc(N3CCN(C)CC3)c([N+](=O)[O-])c2)cc1
EC50 (BJ [7]): > 150 µM (not active)
EC50 (BJ [8]): > 150 µM (not active)
EC50 (BJ [9]): > 150 µM (not active)
EC50 [10]: > 150 µM (not active)

Compound: CCOc1ccccc1C(=O)N[C@H](C(=O)Nc1nc2c(s1)CCCC2)C(C)C
EC50 [12]: 1.01 µM (active)
IC50 [13]: > 67.6 µM (inactive)
EC50 [14]: > 60 µM (inconclusive)
EC50 [15]: > 67.6 µM (inactive)

Compound: CCOC(=O)c1ccc2[nH]c3c(c2c1)CN(C)CC3
IC50 (cells): 1.22 µM (active)

More lines, now with the values ahead:

IC50 (Estrogen receptor beta [1]): 0.0598 µM (not active)
Compound: CCOC(=O)c1ccc(NC(=O)COc2ccc(-n3cnnn3)cc2)cc1

IC50 [5]: > 50 µM (not active)
IC50 [6]: 9.75 µM (active)
Compound: CC(C)CCOc1ccc(C(=O)C[N+]2(C)CCOCC2)cc1

IC50 (Estrogen receptor beta [11]): > 50 µM (not active)
Compound: O=C(CCc1ccccc1)Nc1nnc(-c2cccs2)o1

IC50 (Prothrombin): 0.00567 µM (active)
Compound: CC(C)C(=O)n1nc(-c2cccnc2)nc1NCc1ccc(F)cc1

IC50 (Prothrombin): 0.0232 µM (active)
Compound: CCCC(=O)n1nc(-c2ccco2)nc1SCc1ccccc1
